Data on 33 compounds can be found in patent US20070275968A1, “Substituted Biphenyl Derivative” (priority 2004, published 2007).

Compound `Cc1cccc(-c2[nH]c(C(C)C)nc2-c2ccc(F)c(-c3ccc(C(=O)O)cc3)c2)n1` [Example 101, 2′-Fluoro-5′-[2-isopropyl-5-(6-methylpyridin-2-yl)-1H-imidazol-4-yl]-1,1′-biphenyl-4-carboxylic acid] showed a melting point of 160 to 161 °C.

`Cc1cccc(-c2[nH]c(C(C)C)nc2-c2ccc(F)c(-c3c[nH]nn3)c2)n1` [Example 106, 2-{4-[4-Fluoro-3-(1H-1,2,3-triazol-4-yl)phenyl]-2-isopropyl-1H-imidazol-5-yl}-6-methylpyridine] had a melting point of 233 to 235 °C.

As to `CCn1cc(-c2cc(-c3[nH]c(C(C)C)nc3-c3cccc(C)n3)ccc2F)cn1` [Example 107, 2-{5-[3-(1-Ethyl-1H-pyrazol-4-yl)-4-fluorophenyl]-2-isopropyl-1H-imidazol-4-yl}-6-methylpyridine], the melting point lay in the range of 76 to 78 °C.

For the compound `Cc1cccc(-c2nc(C(C)C)[nH]c2-c2ccc(F)c(-c3cnn(C(C)C)c3)c2)n1` [Example 108, 2-{5-[4-Fluoro-3-(1-isopropyl-1H-pyrazol-4-yl)phenyl]-2-isopropyl-1H-imidazol-4-yl}-6-methylpyridine], the melting point fell in the range of 84 to 85 °C.

On to `Cc1cccc(-c2nc(C(C)C)[nH]c2-c2ccc(F)c(-c3ccc(NS(=O)(=O)C4CC4)cc3)c2)n1` [Example 111, N-{2′-Fluoro-5′-[2-isopropyl-4-(6-methylpyridin-2-yl)-1H-imidazol-5-yl]-1,1′-biphenyl-4-yl}cyclopropanesulfonamide], for which the melting point fell in the range of 119 to 129 °C.

`Cc1cccc(-c2nc(C(C)C)[nH]c2-c2ccc(F)c(-c3ccco3)c2)n1` [Example 113, 2-{5-[4-Fluoro-3-(2-furyl)phenyl]-2-isopropyl-1H-imidazol-4-yl}-6-methylpyridine] showed a melting point of 78 to 90 °C.

`Cc1cccc(-c2[nH]c(C(C)C)nc2-c2ccc(F)c(-c3ccc(O)cc3)c2)n1` [Example 114, 2′-Fluoro-5′-[2-isopropyl-5-(6-methylpyridin-2-yl)-1H-imidazol-4-yl]-1,1′-biphenyl-4-ol] registered a melting point of 143 to 145 °C.

`Cc1cccc(-c2[nH]c(C(C)C)nc2-c2ccc(F)c(-c3cc[nH]c3)c2)n1` [Example 123, 2-{4-[4-Fluoro-3-(1H-pyrrol-3-yl)phenyl]-2-isopropyl-1H-imidazol-5-yl}-6-methylpyridine] gave a melting point of 106 to 110 °C.

`Cc1cccc(-c2[nH]c(C(C)C)nc2-c2ccc(F)c(-c3ccc(S(C)(=O)=O)cn3)c2)n1` [Example 124, 2-{2-Fluoro-5-[2-isopropyl-5-(6-methylpyridin-2-yl)-1H-imidazol-4-yl]phenyl}-5-(methylsulfonyl)pyridine] gave a melting point of 105 to 108 °C.

Take `Cc1cccc(-c2[nH]c(C(C)C)nc2-c2ccc(F)c(-c3ccc([S+](C)[O-])nc3)c2)n1` (stereo not drawn) [Example 128, 5-{2-Fluoro-5-[2-isopropyl-5-(6-methylpyridin-2-yl)-1H-imidazol-4-yl]phenyl}-2-(methylsulfinyl)pyridine]: the melting point was 100 to 102 °C.

As for `Cc1cccc(-c2[nH]c(C(C)C)nc2-c2ccc(F)c(-c3ccc(S(C)(=O)=O)nc3)c2)n1` [Example 129, 5-{2-Fluoro-5-[2-isopropyl-5-(6-methylpyridin-2-yl)-1H-imidazol-4-yl]phenyl}-2-(methylsulfonyl)pyridine], the melting point is 102 to 105 °C.

For the compound `Cc1cccc(-c2[nH]c(C(C)C)nc2-c2ccc(F)c(-c3nc[nH]n3)c2)n1` [Example 133, 2-{4-[4-Fluoro-3-(1H-1,2,4-triazol-3-yl)phenyl]-2-isopropyl-1H-imidazol-5-yl}-6-methylpyridine], the melting point fell in the range of 184 to 186 °C.

In the case of `Cc1cccc(-c2[nH]c(C(C)C)nc2-c2ccc(F)c(-c3ncc[nH]3)c2)n1` [Example 134, 2-{4-[4-Fluoro-3-(1H-imidazol-2-yl)phenyl]-2-isopropyl-1H-imidazol-5-yl}-6-methylpyridine], the melting point fell in the range of 201 to 205 °C.

Regarding `Cc1cccc(-c2[nH]c(C(C)C)nc2-c2ccc(F)c(-c3cc[nH]n3)c2)n1` [Example 135, 2-{4-[4-Fluoro-3-(1H-pyrazol-3-yl)phenyl]-2-isopropyl-1H-imidazol-5-yl}-6-methylpyridine], the melting point was in the range of 195 to 198 °C.

For `Cc1cccc(-c2[nH]c(C(C)C)nc2-c2ccc(F)c(-c3c[nH]c(=O)[nH]3)c2)n1` [Example 140, 4-{2-Fluoro-5-[2-isopropyl-5-(6-methylpyridin-2-yl)-1H-imidazol-4-yl]phenyl}-1,3-dihydro-2H-imidazol-2-one], the melting point lay within 177 to 180 °C.

For the compound `Cc1cccc(-c2[nH]c(C(C)C)nc2-c2ccc(F)c(-c3c[nH]c(C)n3)c2)n1` [Example 141, 2-{4-[4-Fluoro-3-(2-methyl-1H-imidazol-4-yl)phenyl]-2-isopropyl-1H-imidazol-5-yl}-6-methylpyridine], the melting point is 230 to 234 °C.

Regarding `CCc1nc(-c2cc(-c3nc(C(C)C)[nH]c3-c3cccc(C)n3)ccc2F)c[nH]1` [Example 142, 2-{4-[3-(2-Ethyl-1H-imidazol-4-yl)-4-fluorophenyl]-2-isopropyl-1H-imidazol-5-yl}-6-methylpyridine], the melting point lay within 170 to 175 °C.

Compound `Cc1cccc(-c2n[nH]cc2-c2ccc(F)c(-c3ccc(S(N)(=O)=O)s3)c2)n1` [Example 143, 5-{2-Fluoro-5-[3-(6-methylpyridin-2-yl)-1H-pyrazol-4-yl]phenyl}thiophene-2-sulfonamide] gave a melting point of 125 °C.

Compound `Cc1cccc(-c2n[nH]cc2-c2ccc(F)c(-c3ccc(S(N)(=O)=O)c(F)c3)c2)n1` [Example 147, 2′,3-Difluoro-5′-[3-(6-methylpyridin-2-yl)-1H-pyrazol-4-yl]-1,1′-biphenyl-4-sulfonamide] registered a melting point of 119 to 121 °C.

In turn, `Cc1cccc(-c2n[nH]cc2-c2ccc(F)c(-c3ccc(O)c(S(N)(=O)=O)c3)c2)n1` [Example 148, 2′-Fluoro-4-hydroxy-5′-[3-(6-methylpyridin-2-yl)-1H-pyrazol-4-yl]-1,1′-biphenyl-3-sulfonamide] showed a melting point of 104 to 109 °C.

As for `Cc1cccc(-c2n[nH]cc2-c2ccc(F)c(-c3cc(F)c(S(N)(=O)=O)cc3F)c2)n1` [Example 149, 2,2′,5-Trifluoro-5′-[3-(6-methylpyridin-2-yl)-1H-pyrazol-4-yl]-1,1′-biphenyl-4-sulfonamide], the melting point is 122 to 125 °C.

`Cc1cccc(-c2n[nH]cc2-c2ccc(F)c(-c3ccc(S(N)(=O)=O)c(C(F)(F)F)c3)c2)n1` [Example 152, 2′-Fluoro-5′-[3-(6-methylpyridin-2-yl)-1H-pyrazol-4-yl]-3-(trifluoromethyl)-1,1′-biphenyl-4-sulfonamide] displayed a melting point of 107 to 110 °C.

The compound `Cc1cccc(-c2n[nH]cc2-c2ccc(F)c(-c3ccc(C(C)(O)CF)cn3)c2)n1` (stereo not drawn) [Example 163, 1-Fluoro-2-(6-{2-fluoro-5-[3-(6-methylpyridin-2-yl)-1H-pyrazol-4-yl]phenyl}pyridin-3-yl)propan-2-ol] came in with a melting point of 174 to 176 °C.

For `Cc1cccc(-c2n[nH]cc2-c2ccc(F)c(-c3ccc(C(C)(O)C(F)(F)F)cn3)c2)n1` (stereo not drawn) [Example 164, 1,1,1-Trifluoro-2-(6-{2-fluoro-5-[3-(6-methylpyridin-2-yl)-1H-pyrazol-4-yl]phenyl}pyridin-3-yl)propan-2-ol], the melting point is 197 to 198 °C.

The compound `Cc1cccc(-c2n[nH]cc2-c2ccc(F)c(-c3ccc(C(C)O)cn3)c2)n1` (stereo not drawn) [Example 165, 1-(6-{2-Fluoro-5-[3-(6-methylpyridin-2-yl)-1H-pyrazol-4-yl]phenyl}pyridin-3-yl)ethanol] returned a melting point of 149 to 151 °C.

In turn, `Cc1cccc(-c2n[nH]cc2-c2ccc(F)c(-c3ccc(OCCO)cn3)c2)n1` [Example 166, 2-[(6-{2-Fluoro-5-[3-(6-methylpyridin-2-yl)-1H-pyrazol-4-yl]phenyl}pyridin-3-yl)oxy]ethanol] displayed a melting point of 148 to 151 °C.

`Cc1cccc(-c2n[nH]cc2-c2ccc(F)c(-c3ccc(S(=O)(=O)C(F)(F)F)cc3)c2)n1` [Example 168, 2-(4-{6-Fluoro-4′-[(trifluoromethyl)sulfonyl]-1,1′-biphenyl-3-yl}-1H-pyrazol-3-yl)-6-methylpyridine] registered a melting point of 81 to 84 °C.

Compound `Cc1cccc(-c2n[nH]cc2-c2ccc(F)c(-c3ccc(SCCO)cc3)c2)n1` [Example 169, 2-({2′-Fluoro-5′-[3-(6-methylpyridin-2-yl)-1H-pyrazol-4-yl]-1,1′-biphenyl-4-yl}thio)ethanol] displayed a melting point of 150 to 152 °C.

In the case of `Cc1cccc(-c2n[nH]cc2-c2ccc(F)c(-c3ccc(S(=O)(=O)CCO)cc3)c2)n1` [Example 170, 2-({2′-Fluoro-5′-[3-(6-methylpyridin-2-yl)-1H-pyrazol-4-yl]-1,1′-biphenyl-4-yl}sulfonyl)ethanol], the melting point was 88 to 90 °C.

For `Cc1cccc(-c2n[nH]cc2-c2ccc(F)c(-c3ccc(S(=O)(=O)C(F)F)cc3)c2)n1` [Example 171, 2-(4-{4′-[(Difluoromethyl)sulfonyl]-6-fluoro-1,1′-biphenyl-3-yl}-1H-pyrazol-3-yl)-6-methylpyridine], the melting point lay in the range of 80 to 82 °C.

The compound `COC(C)(C)c1ccc(-c2cc(-c3c[nH]nc3-c3cccc(C)n3)ccc2F)nc1` [Example 173, 2-{2-Fluoro-5-[3-(6-methylpyridin-2-yl)-1H-pyrazol-4-yl]phenyl}-5-(1-methoxy-1-methylethyl)pyridine] gave a melting point of 168 to 169 °C.

Regarding `CCC(O)(CC)c1ccc(-c2cc(-c3c[nH]nc3-c3cccc(C)n3)ccc2F)nc1` [Example 174, 3-(6-{2-Fluoro-5-[3-(6-methylpyridin-2-yl)-1H-pyrazol-4-yl]phenyl}pyridin-3-yl)pentan-3-ol], the melting point lay within 94 to 95 °C.

`Cc1cccc(-c2n[nH]cc2-c2ccc(F)c(-c3cnn(CCN4CCOCC4)c3)c2)n1` [Example 175, 4-[2-(4-{2-Fluoro-5-[3-(6-methylpyridin-2-yl)-1H-pyrazol-4-yl]phenyl}-1H-pyrazol-1-yl)ethyl]morpholine] registered a melting point of 124 °C.

In general, melting point refers to the temperature, or range, at which the solid turns liquid.
